pEC50: −log10 of the molar value. Where two headings read alike, the source gives them in different places.

For one test, the target named is T1, human TLR7 (Homo sapiens, UniProt Q9NYK1).
T1 construct: host or cells: HEK293 reporter cells
T1 sequence (Q9NYK1 27-1049): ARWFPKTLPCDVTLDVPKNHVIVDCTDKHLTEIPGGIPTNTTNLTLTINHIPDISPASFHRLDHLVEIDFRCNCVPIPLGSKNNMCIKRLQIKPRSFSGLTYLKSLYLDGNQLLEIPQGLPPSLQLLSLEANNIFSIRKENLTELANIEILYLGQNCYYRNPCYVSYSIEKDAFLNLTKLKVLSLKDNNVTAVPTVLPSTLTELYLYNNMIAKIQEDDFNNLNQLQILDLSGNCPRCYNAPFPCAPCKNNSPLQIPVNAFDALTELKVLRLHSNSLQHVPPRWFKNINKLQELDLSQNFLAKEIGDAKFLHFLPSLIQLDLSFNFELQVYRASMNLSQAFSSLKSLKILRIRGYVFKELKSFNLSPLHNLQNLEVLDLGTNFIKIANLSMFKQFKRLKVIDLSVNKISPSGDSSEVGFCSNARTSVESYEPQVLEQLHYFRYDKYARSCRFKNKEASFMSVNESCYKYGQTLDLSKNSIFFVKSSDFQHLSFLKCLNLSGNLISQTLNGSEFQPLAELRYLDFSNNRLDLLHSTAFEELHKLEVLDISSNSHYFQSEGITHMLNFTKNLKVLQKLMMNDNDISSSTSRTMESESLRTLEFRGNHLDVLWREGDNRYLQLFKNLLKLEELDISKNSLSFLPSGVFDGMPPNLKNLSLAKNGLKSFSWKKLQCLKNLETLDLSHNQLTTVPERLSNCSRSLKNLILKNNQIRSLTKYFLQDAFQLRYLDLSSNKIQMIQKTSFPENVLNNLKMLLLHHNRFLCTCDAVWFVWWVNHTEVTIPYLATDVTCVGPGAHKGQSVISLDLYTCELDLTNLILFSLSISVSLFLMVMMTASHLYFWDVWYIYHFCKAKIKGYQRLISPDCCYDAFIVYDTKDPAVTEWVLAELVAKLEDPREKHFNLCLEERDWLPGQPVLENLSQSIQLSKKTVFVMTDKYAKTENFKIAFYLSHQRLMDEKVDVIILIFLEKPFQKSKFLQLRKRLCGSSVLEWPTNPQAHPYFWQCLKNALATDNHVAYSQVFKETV
Description: HEK293 NFKB reporter assay, human TLR7. Type of test: cell-based. Conditions: HEK293 reporter cells expressing human TLR7, read-out: HEK293 hTLR7 EC50. Here is the method: (§1) Each compound was synthesized and purified by the methods in the Examples provided herein, characterized by mass spectrometry, and shown to have the mass indicated. Activity against HEK293 NFKB reporter cells expressing human TLR7 or human TLR8 was measured according to Example 68.
(§2) HEK293 reporter cells expressing human TLR7 or human TLR8 were purchased from Invivogen and vendor protocols were followed for cellular propagation and experimentation. Briefly, cells were grown to 80-85% confluence at 5% CO2 in DMEM supplemented with 10% FBS, Zeocin, and Blasticidin. Cells were then seeded in 96-well flat plates at 4×10^4cells/well with substrate containing HEK detection medium and immunostimulatory molecules. Activity was measured using a plate reader at 620-655 nm wavelength.
On the technique in general: In a reporter assay the amount or activity of a reporter protein is the signal.

A further test concerns the target T2, human TLR8 (Homo sapiens, UniProt Q9NR97).
T2 construct: host or cells: HEK293 reporter cells
T2 sequence (Q9NR97 27-1041): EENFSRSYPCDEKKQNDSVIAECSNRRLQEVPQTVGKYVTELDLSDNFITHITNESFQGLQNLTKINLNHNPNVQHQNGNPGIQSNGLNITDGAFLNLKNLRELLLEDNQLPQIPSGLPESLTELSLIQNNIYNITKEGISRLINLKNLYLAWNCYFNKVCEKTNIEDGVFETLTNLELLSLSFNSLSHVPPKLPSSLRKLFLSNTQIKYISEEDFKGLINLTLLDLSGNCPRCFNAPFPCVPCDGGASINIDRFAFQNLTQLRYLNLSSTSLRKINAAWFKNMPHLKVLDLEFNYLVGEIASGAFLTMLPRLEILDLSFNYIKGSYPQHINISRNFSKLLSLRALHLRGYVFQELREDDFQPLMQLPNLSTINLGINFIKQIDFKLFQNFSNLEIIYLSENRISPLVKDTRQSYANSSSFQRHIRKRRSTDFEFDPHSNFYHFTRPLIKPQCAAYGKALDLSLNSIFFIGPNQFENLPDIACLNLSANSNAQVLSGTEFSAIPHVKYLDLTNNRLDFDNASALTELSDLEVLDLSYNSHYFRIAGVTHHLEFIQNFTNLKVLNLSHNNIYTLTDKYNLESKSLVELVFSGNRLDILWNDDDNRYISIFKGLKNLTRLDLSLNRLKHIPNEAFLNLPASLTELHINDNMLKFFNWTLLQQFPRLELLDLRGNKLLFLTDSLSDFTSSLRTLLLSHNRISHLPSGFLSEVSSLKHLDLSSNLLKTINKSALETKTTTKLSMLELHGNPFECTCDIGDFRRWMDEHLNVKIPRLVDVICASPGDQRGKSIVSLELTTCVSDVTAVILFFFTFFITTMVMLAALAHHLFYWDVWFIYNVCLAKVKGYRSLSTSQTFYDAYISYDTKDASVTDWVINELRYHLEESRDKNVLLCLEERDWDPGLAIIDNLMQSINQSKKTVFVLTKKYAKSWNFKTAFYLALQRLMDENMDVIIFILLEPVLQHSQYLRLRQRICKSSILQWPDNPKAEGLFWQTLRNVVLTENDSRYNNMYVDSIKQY
Description: HEK293 NFKB reporter assay, human TLR8. It counts as cell-based. As to conditions: HEK293 reporter cells expressing human TLR8, read-out: HEK293 hTLR8 EC50. Here is the method:
as §1, §2

One may read the pEC50 as the negative decadic logarithm of the EC50, by convention in mol/L. For `CCCN(CCNC(=O)OC(C)(C)C)C(=O)C1=Cc2ccc(-c3cccc(S(=O)(=O)N4CC(CO)C4)c3)cc2N=C(N)C1` [Bz-10, tert-butyl (2-(2-amino-8-(3-((3-(hydroxymethyl)azetidin-1-yl)sulfonyl)phenyl)-N-propyl-3H-benzo[b]azepine-4-carboxamido)ethyl)carbamate], the negative logarithm of the EC50 (pEC50) on human TLR7 (Table 1a) and on human TLR8 (Table 1a) was under 5.05 in each case.

In the case of `CCCN(CCCCCN)C(=O)C1=Cc2ccc(-c3cccc(S(=O)(=O)N4CC(CO)C4)c3)cc2N=C(N)C1` [Bz-20, 2-amino-N-(5-aminopentyl)-8-(3-((3-(hydroxymethyl)azetidin-1-yl)sulfonyl)phenyl)-N-propyl-3H-benzo[b]azepine-4-carboxamide], the pEC50 on human TLR7 (Table 1b) and at human TLR8 (Table 1b) was under 5.05 throughout.

For `CCCN(CCC)C(=O)C1=Cc2c(CCCCNC(=O)OC(C)(C)C)cc(-c3cccc(S(=O)(=O)N4CC(CO)C4)c3)cc2N=C(N)C1` [Bz-5, tert-butyl (4-(2-amino-4-(dipropylcarbamoyl)-8-(3-((3-(hydroxymethyl)azetidin-1-yl)sulfonyl)phenyl)-3H-benzo[b]azepin-6-yl)butyl)carbamate], the pEC50 at human TLR7 (Table 1a) is 6.81; on human TLR8 (Table 1a) it was 6.59.

Regarding `CCCN(CCCNC(=O)c1ccc(OCC)cc1)C(=O)C1=Cc2ccc(C(=O)Nc3ccccc3)cc2N=C(N)C1` [Bz-55], the pEC50 was at most 5.05 at human TLR7 (Table 1c) and 5.98 at human TLR8 (Table 1c).

Regarding `CCCN(CCCOCCCN)C(=O)C1=Cc2ccc(-c3cccc(S(=O)(=O)N4CC(CO)C4)c3)cc2N=C(N)C1` [Bz-18, 2-amino-N-(3-(3-aminopropoxy)propyl)-8-(3-((3-(hydroxymethyl)azetidin-1-yl)sulfonyl)phenyl)-N-propyl-3H-benzo[b]azepine-4-carboxamide], the pEC50 at human TLR7 (Table 1b) was 5.70; on human TLR8 (Table 1b), 5.47.

`CCCN(CCCNC(=O)OC(C)(C)C)C(=O)C1=Cc2ccc(-c3cccc(S(=O)(=O)N4CC(CO)C4)c3)cc2N=C(N)C1` [Bz-1, tert-butyl N-[3-[[2-amino-8-[3-[3-(hydroxymethyl)azetidin-1-yl]sulfonylphenyl]-3H-1-benzazepine-4-carbonyl]-propyl-amino]propyl]carbamate]: the pEC50 is 6.24 at human TLR7 (Table 1a) and 6.97 at human TLR8 (Table 1a).

Consider `CCCN(CCCN(C)C(=O)OC(C)(C)C)C(=O)C1=Cc2ccc(-c3cccc(S(=O)(=O)N4CC(CO)C4)c3)cc2N=C(N)C1` [Bz-3, tert-butyl (3-(2-amino-8-(3-((3-(hydroxymethyl)azetidin-1-yl)sulfonyl)phenyl)-N-propyl-3H-benzo[b]azepine-4-carboxamido)propyl)(methyl)carbamate], for which the pEC50 on human TLR7 (Table 1a) is 6.26; on human TLR8 (Table 1a) it was 5.37.

With `CCCN(CCC)C(=O)C1=Cc2ccc(CCCCCNC(=O)OC(C)(C)C)cc2N=C(N)C1` [Bz-69], the results for the pEC50 at human TLR7 (Table 1c) and at human TLR8 (Table 1c) were 5.49 and 5.18, respectively.

For `CCCN(CCCCN)C(=O)C1=Cc2ccc(-c3cccc(S(=O)(=O)N4CC(CO)C4)c3)cc2N=C(N)C1` [Bz-24, 2-amino-N-(4-aminobutyl)-8-[3-[3-(hydroxymethyl)azetidin-1-yl]sulfonylphenyl]-N-propyl-3H-1-benzazepine-4-carboxamide], the pEC50 on human TLR7 (Table 1b) and on human TLR8 (Table 1b) was under 5.05 in each case.

For `CCCN(Cc1ccc(CN2CCNCC2)cc1)C(=O)C1=Cc2ccc(-c3cccc(S(=O)(=O)N4CC(CO)C4)c3)cc2N=C(N)C1` [Bz-32, 2-amino-8-[3-[3-(hydroxymethyl)azetidin-1-yl]sulfonylphenyl]-N-[[4-(piperazin-1-ylmethyl)phenyl]methyl]-N-propyl-3H-1-benzazepine-4-carboxamide], the negative logarithm of the EC50 (pEC50) on human TLR7 (Table 1b) and on human TLR8 (Table 1b) was under 5.05 each time.

Regarding `CCCN(CCC)C(=O)C1=Cc2ccc(-c3cccc(S(=O)(=O)N4CC(CN)C4)c3)cc2N=C(N)C1` [Bz-15, 2-amino-8-[3-[3-(aminomethyl)azetidin-1-yl]sulfonylphenyl]-N,N-dipropyl-3H-1-benzazepine-4-carboxamide], the pEC50 on human TLR7 (Table 1a) was under 5.05; at human TLR8 (Table 1a), 6.99.

These data come from patent US20200390899A1, “AMINOBENZAZEPINE COMPOUNDS, IMMUNOCONJUGATES, AND USES THEREOF” (BOLT BIOTHERAPEUTICS, INC., priority 2019, published 2020).
